Results reported in publication PMC3674995, “Safety, Pharmacokinetic, and Efficacy Studies of Oral DB868 in a First Stage Vervet Monkey Model of Human African Trypanosomiasis” (PLoS Neglected Tropical Diseases, 2013).
pIC50: −log10 of the molar value. “And” between values parts separate entries of the source, which are not always exact repeats. Equal entries are not always repeated. Where two headings read alike, the source gives them in different places.

Key:
[1] = system: T. b. rhodesiense KETRI 2537; parameters: method as in PMID 19064893; conditions: oral, for 5 days; first stage HAT monkey model; cited from earlier work
[2] = parameters: method as in PMID 20721830; conditions: cited from earlier work
[3] = parameters: method as in earlier work; conditions: cited from earlier work
[4] = oral administration, cited from earlier work
[5] = Metabolism of DB868 in vervet monkey liver microsomes; assay type: in vitro ADME; conditions: incubation of 10 µM DB868; HPLC/UV; formation confirmed by fluorescence and mass spectrometric detection
Procedure: DB868 metabolism was studied in male vervet monkey liver microsomes (custom-prepared by XenoTech, LLC, Lenexa, KS, USA) by adapting a previously published method. Briefly, incubation mixtures contained 10 µM DB868, 0.5 mg/mL monkey liver microsomes, and 3.3 mM MgCl2 in 100 mM phosphate buffer (pH 7.4). Reactions were initiated by the addition of NADPH (1 mM final concentration). Control incubations were carried out without NADPH, DB868, or liver microsomes. Aliquots (100 µL) of the reaction mixtures were removed at 0, 5, 10, 15, 30, 60 and 120 min and mixed with 100 µL of ice-cold acetonitrile. After centrifugation to pellet precipitated proteins, the supernatants were analyzed by HPLC/UV and fluorescence using the method previously described for pafuramidine (DB289) and furamidine (DB75). Metabolite identification was performed by comparing retention times to those of synthetic standards for M1 (DB1679), M2 (DB840), M3 (DB1712), and DB829. DB868 and its metabolites were quantified using a calibration curve (0.1–10 µM) generated using synthetic standards.

[6] = system: T. b. brucei GVR35; parameters: method as in PMID 19620327; conditions: intraperitoneal administration; cited from earlier work
[7] = Pharmacokinetics in uninfected vervet monkeys; conditions: for half-life: po, geometric mean terminal elimination half-life
[8] = Pharmacokinetics in infected vervet monkeys (first stage HAT); assay type: in vivo, vervet monkey; conditions: for AUClast: last measurable concentration varied (2–133 days)
[9] = system: T. b. rhodesiense STIB900; parameters: method as in PMID 19620327; conditions: in vitro; cited from earlier work
[10] = system: T. b. rhodesiense STIB900; parameters: method as in PMID 19620327; conditions: intraperitoneal administration; cited from earlier work
[11] = system: T. b. brucei s427 trypanosomes; parameters: method as in PMID 21402852; conditions: 2.7 µM; cited from earlier work
[12] = after final oral dose of DB868 10 mg/kg×10 days, uninfected, individual monkeys
[13] = after final oral dose of DB868 30 mg/kg×10 days, uninfected, individual monkeys
[14] = oral DB868 10 mg/kg group, infected
[15] = oral DB868 20 mg/kg group, infected
[16] = oral DB868 20 mg/kg×5 days, infected, individual monkeys

## CONC(=N)c1ccc(-c2ccc(-c3ccc(C(=N)NOC)cc3)o2)cc1 [pafuramidine, 2,5-bis(4-amidinophenyl)furan-bis-O-methylamidoxime]
[1]
  dose required to achieve complete cure: 10 mg/kg
[2]; extended phase I clinical trial in humans
  liver injury: transient liver injury
[2]; five patients
  patients with unexpected severe kidney injury: ~6%
[3]; oral 12 mg/kg/day×28 days, one week post-LDD
  increase in KIM-1: 13 fold
[3]; rats, 12 mg/kg/day for 4 weeks
  increase in ALT compared to untreated rats: 18 fold
[4]; mouse diversity panel
  classical kidney injury biomarkers, BUN and serum creatinine: remained unchanged
[4]; sensitive strains of 34 inbred mouse strains
  urinary kidney injury molecule-1 (KIM-1): marked elevations

## N=C(N)c1ccc(-c2ccc(-c3ccc(C(=N)N)cn3)o2)nc1 [DB829, 2,5-bis(5-amidino-2-pyridyl)furan]
[5]
  detection of active compound formed from DB868: at the limit of detection in UV mode
[6]
  curative: 100%
[7]; [12]
  AUC0-∞: 3700 nmol/L•day (2×) and 4100 nmol/L•day and 2400 nmol/L•day
  AUClast: 3000 nmol/L•day and 2800 nmol/L•day and 2100 nmol/L•day (2×)
  t1/2 (terminal elimination half-life): 30 day (2×) and 55 day and 18 day
[7]; [13]
  AUC0-∞: 5600 nmol·days/L and 7000 nmol·days/L and 6200 nmol·days/L and 12100 nmol·days/L
  AUClast: 4700 nmol·days/L and 5700 nmol·days/L and 4600 nmol·days/L and 7100 nmol·days/L
[7]; both, monkey, in vivo, 10 mg/kg, C4 h, plasma concentration at 4 h after final (10th) oral dose of DB868 10 mg/kg×10 days, uninfected, individual monkeys 643, 659, 675, 677
  concentration at 4 h: 240 nM
[7]; both, monkey, in vivo, 10 mg/kg/day, geometric mean C4 h, oral DB868 10 mg/kg/day×10 days, uninfected, n = 4
  concentration at 4 h: 185 nM
[7]; both, monkey, in vivo, 30 mg/kg, C4 h, plasma concentration at 4 h after final (10th) oral dose of DB868 30 mg/kg×10 days, uninfected, individual monkeys 546, 567, 668, 679
  concentration at 4 h: 440 nM
[7]; both, monkey, in vivo, 30 mg/kg, C24 h, plasma, 24 h after final oral dose of DB868 30 mg/kg×10 days, uninfected, individual monkeys
  concentration at 24 h: 360 nM
[7]; both, monkey, in vivo, 30 mg/kg/day, geometric mean C4 h, oral DB868 30 mg/kg/day×10 days, uninfected, n = 4
  concentration at 4 h: 320 nM
[7]; both, monkey, in vivo, 10 mg/kg/day, oral DB868 10 mg/kg/day×10 days, uninfected (second of 'respectively'; agrees with Table 1)
  half-life: 744 h
[7]; both, monkey, in vivo, 30 mg/kg/day, oral DB868 30 mg/kg/day×10 days, uninfected (first of 'respectively'; agrees with Table 1)
  half-life: 696 h
[7]; oral DB868 10 mg/kg/day×10 days, uninfected
  geometric mean C4 h relative to IC50 (14 nmol/L) against T. b. rhodesiense STIB900: 13 fold
[7]; oral DB868 30 mg/kg/day×10 days, uninfected
  geometric mean C4 h relative to IC50 (14 nmol/L) against T. b. rhodesiense STIB900: 23 fold
[7]; oral DB868, in some monkeys (Figures 6 and 8, uninfected and infected)
  time plasma concentrations remained >100 nmol/L after last DB868 dose: up to 7 days post-LDD
[7]; oral DB868×10 days, uninfected
  geometric mean AUC0-∞, 30 mg/kg group relative to 10 mg/kg group: 2.2 fold
  geometric mean AUClast, 30 mg/kg group relative to 10 mg/kg group: 2.2 fold
[7]; plasma concentration at 4 h after final (10th) oral dose of DB868 10 mg/kg×10 days, uninfected, individual monkeys 643, 659, 675, 677
  C4 h: 160 nM and 180 nM and 170 nM
[7]; plasma concentration at 4 h after final (10th) oral dose of DB868 30 mg/kg×10 days, uninfected, individual monkeys 546, 567, 668, 679
  C4 h: 290 nM and 300 nM and 270 nM
[7]; plasma, 24 h after final oral dose of DB868 10 mg/kg×10 days, uninfected, individual monkeys, BLQ = below limit of quantitation
  C24 h: 140 nM and 260 nM and 120 nM and 170 nM
[7]; plasma, 24 h after final oral dose of DB868 30 mg/kg×10 days, uninfected, individual monkeys
  C24 h: 210 nM and 280 nM and 340 nM
[8]; after final oral dose of DB868 3 mg/kg×7 days, first stage HAT, individual monkeys 638, 643, read-out: Cmax
  Cmax: 230 nM
[8]; after final oral dose of DB868 10 mg/kg×7 days, first stage HAT, individual monkeys 675, 691, read-out: Cmax
  Cmax: 200 nM
[8]; after final oral dose of DB868 20 mg/kg×5 days, infected, individual monkeys
  Tmax: 4.08 h
[8]; monkey, plasma, po, 3 mg/kg, oral DB868 3 mg/kg group, infected, read-out: median Tmax (converted)
  Tmax: 4 h
[8]; monkey, plasma, po, 3 mg/kg/day, oral DB868 3 mg/kg/day×7 days, infected, read-out: median Cmax
  Cmax: 170 nM
[8]; monkey, plasma, po, 10 mg/kg, oral DB868 10 mg/kg group, infected, read-out: median Tmax (converted)
  Tmax: 24 h
[8]; monkey, plasma, po, 10 mg/kg/day, after final oral dose of DB868 10 mg/kg×7 days, first stage HAT, individual monkeys 675, 691, read-out: Cmax
  Cmax: 210 nM
[8]; monkey, plasma, po, 10 mg/kg/day, oral DB868 10 mg/kg/day×7 days, infected, read-out: median Cmax
  Cmax: 205 nM
[8]; monkey, plasma, po, 10 mg/kg/day, oral DB868 10 mg/kg×7 days, infected, monkey 691, read-out: t1/2 (terminal elimination half-life) (converted)
  half-life: 600 h
[8]; monkey, plasma, po, 20 mg/kg, oral DB868 20 mg/kg group, infected, read-out: median Tmax (converted)
  Tmax: 4 h
[8]; monkey, plasma, po, 20 mg/kg/day, after final oral dose of DB868 20 mg/kg×5 days, first stage HAT, individual monkeys 585, 658, read-out: Cmax
  Cmax: 370 nM
[8]; monkey, plasma, po, 20 mg/kg/day, after final oral dose of DB868 20 mg/kg×5 days, infected, individual monkeys, read-out: Tmax (converted)
  Tmax: 4.08 h
[8]; monkey, plasma, po, 20 mg/kg/day, oral DB868 20 mg/kg/day×5 days, infected, read-out: median Cmax
  Cmax: 435 nM
[8]; oral DB868 3 mg/kg/day for 7 days, infected
  median Cmax relative to IC50 (14 nmol/L) against T. b. rhodesiense STIB900: 12 fold
[8]; oral DB868 3 mg/kg×7 days, infected, individual monkeys
  AUClast: 160 nmol·days/L and 950 nmol·days/L
[8]; [14]
  mean AUClast relative to 3 mg/kg group: 7 fold
  median Cmax relative to 3 mg/kg group: 1.2 fold
[8]; oral DB868 10 mg/kg/day for 7 days, infected
  median Cmax relative to IC50 (14 nmol/L) against T. b. rhodesiense STIB900: 15 fold
[8]; oral DB868 10 mg/kg×7 days, infected, individual monkeys
  AUClast: 4000 nmol·days/L and 3500 nmol·days/L
[8]; oral DB868 10 mg/kg×7 days, infected, monkey 691
  AUC0-∞: 3900 nmol·days/L
[8]; [15]
  mean AUClast relative to 3 mg/kg group: 10 fold
  median Cmax relative to 3 mg/kg group: 2.6 fold
[8]; oral DB868 20 mg/kg/day for 5 days, infected
  median Cmax relative to IC50 (14 nmol/L) against T. b. rhodesiense STIB900: 31 fold
[8]; [16]
  AUC0-∞: 10000 nmol·days/L and 5300 nmol·days/L
  t1/2 (terminal elimination half-life): 85 days and 24 days
  AUClast: 7300 nmol·days/L and 4100 nmol·days/L
[8]; oral DB868, infected
  median AUC0-∞ of 20 mg/kg group relative to monkey 691 (10 mg/kg group): twice
  median terminal elimination half-life of 20 mg/kg group relative to monkey 691 (10 mg/kg group): twice
[9]
  pIC50: 7.85
[10]
  curative: 100%
[11]
  exposure required to kill trypanosomes in culture: 24 h
